Experimental data taken from patent publication US11412737B2, “Mixtures of beflubutamid or optically enriched forms thereof with a second herbicide” (FMC Corporation, priority 2016, dated 2022).

Assays:
Common chickweed (STEME) = test: pre-emergence test, weed control; assay type: in vivo, Stellaria media; details: pre-emergent, 28 DAT; BFL at 187.5 g, PYX at 90 g, combination of both
Description: (§1) Test compositions containing the test compounds were diluted with water to provide the appropriate test rate concentrations.
(§2) For pre-emergence testing, four disposable fiber flats (6 inch by 10 inch) for each rate of application of each herbicide solution were filled with top soil, to which seeds of each species were planted in furrows made by a template pressed on the top of the soil. The furrows were covered with soil after planting the seed and were watered well before application of the test compounds.
Fiber flats designated for treatment were placed in a spray chamber having a static platform and a movable sprayer and the height of the spray nozzle was 10.5 inches above the soil level. Once the sprayer was calibrated using water for spray volume of 30 gallons per acre, flats were sprayed with sprayer at a speed to receive a coverage equivalent of 30 gallons per acre. […]
The control of weeds was evaluated in each experimental test at 21 for wheat and 28 days after treatment (DAT) for all species. Data were analyzed using Minitab software at 95% confidence interval. […] Percent control was determined by a method similar to the 0 to 100 rating system disclosed in “Research Methods in Weed Science,” 2nd ed., B. Truelove, Ed.; Southern Weed Science Society; Auburn University, Auburn, Ala., 1977. […]

Jimsonweed (DATST) = test: pre-emergence test, weed control; assay type: in vivo, Datura stramonium; details: pre-emergent, 28 DAT, combination of both
Description: as §1, §2
(§3) Fiber flats designated for treatment were placed in a spray chamber having a static platform and a movable sprayer and the height of the spray nozzle was 10.5 inches above the soil level. Once the sprayer was calibrated using water for spray volume of 30 gallons per acre, flats were sprayed with sprayer at a speed to receive a coverage equivalent of 30 gallons per acre. The application rates are those shown in the Tables below for the individual herbicidal solutions and the herbicide compositions of this invention. The pre-emergence flats were immediately placed in the greenhouse and watered lightly after treatment. Thereafter they were regularly watered and fertilized for the duration of the test.
(§4) The control of weeds was evaluated in each experimental test at 21 for wheat and 28 days after treatment (DAT) for all species. Data were analyzed using Minitab software at 95% confidence interval. The results, shown as an average of the replications, were compared with results observed in untreated control flats in the same tests. Percent control was determined by a method similar to the 0 to 100 rating system disclosed in “Research Methods in Weed Science,” 2nd ed., B. Truelove, Ed.; Southern Weed Science Society; Auburn University, Auburn, Ala., 1977. The rating system is as follows in Table 1.

Wild oat (AVEFA) = test: pre-emergence test, weed control; assay type: in vivo, Avena fatua; details: pre-emergent, 21 DAT, rate g ai/ha by row: r4 94, r5 125, r6 250, r7 125, r8 250, r9 500, r10 94+125, r11 125+125, r12 94+250, r13 125+250, r14 94+500, r15 125+500
Description: as §1, §2, §3, §4

Palmer amaranth (AMAPA) [1] = test: pre-emergence test, weed control; assay type: in vivo, Amaranthus palmeri; details: pre-emergent, 28 DAT; for control of Palmer amaranth (AMAPA): BFL at 125 g/ha, DCI at 125 g/ha, combination of both; for percentage of weed control, AMAPA: (−)-BFL >95% e.e., rate g ai/ha by row: r6 62, r7 125, r8 125, r9 250, r10 445, r11 890, r12 45, r13 90, r14 62+125, r15 125+125, r16 62+250, r17 125+250, r18 62+445, r19 125+445, r20 62+890, r21 125+890, r22 62+45, r23 125+45, r24 62+90, r25 125+90
Description: as §1, §2, §3, §4

Barnyardgrass (ECHCG) = test: post-emergence test, weed control; assay type: in vivo, Echinochloa crus-galli; details: post-emergent, 28 DAT; for control of barnyardgrass (ECHCG): BFL at 125 g/ha, DCI at 125 g/ha, combination of both; for percentage of weed control, ECHCG: height 8-9 cm, rate g ai/ha by row: r7 94, r8 125, r9 188, r10 125, r11 250, r12 94+125, r13 125+125, r14 188+125, r15 94+250, r16 125+250, r17 188+250
Description: as §1
(§5) For post-emergence testing, seeds of each species for each rate of application of each herbicide solution were planted in 7.5 cm×7.5 cm plastic pots filled with potting soil. The seeds were germinated and the resulting plants were allowed to grow in a greenhouse until they reached a growth stage, such as height, suitable for testing. […] Pots of post-emergent treated plants were returned to the greenhouse and not watered for 24 hours after treatment. Thereafter they were regularly watered and fertilized for the duration of the test.
(§6) The control of weeds was evaluated in each experimental test at 21 for wheat and 28 days after treatment (DAT) for all species. […] The rating system is as follows in Table 1.

Italian ryegrass (LOLMU) = test: post-emergence test, weed control; assay type: in vivo, Lolium perenne. multiflorum; details: post-emergent, 28 DAT; for percentage of weed control, LOLMU: height 5-6 cm, rate g ai/ha by row: r25 94, r26 125, r27 188, r28 125, r29 250, r30 94+125, r31 125+125, r32 188+125, r33 94+250, r34 125+250, r35 188+250; for control of Italian rygrass (LOLMU): combination of both
Description: as §1
(§7) For post-emergence testing, seeds of each species for each rate of application of each herbicide solution were planted in 7.5 cm×7.5 cm plastic pots filled with potting soil. The seeds were germinated and the resulting plants were allowed to grow in a greenhouse until they reached a growth stage, such as height, suitable for testing. Treatments were applied using compressed air in a track spray chamber at 30 gallons/acre (280 L/ha) using a TeeJet 8001E nozzle at 40 psi (2.76 bars). Pots of post-emergent treated plants were returned to the greenhouse and not watered for 24 hours after treatment. Thereafter they were regularly watered and fertilized for the duration of the test.
as §4

Canola (CN) = test: post-emergence test, crop injury; assay type: in vivo; details: post-emergent, 28 DAT (Table 12 test)
Description: as §1, §7
The control of weeds was evaluated in each experimental test at 21 for wheat and 28 days after treatment (DAT) for all species. Data were analyzed using Minitab software at 95% confidence interval. The results, shown as an average of the replications, were compared with results observed in untreated control flats in the same tests. Percent control was determined by a method similar to the 0 to 100 rating system disclosed in “Research Methods in Weed Science,” 2nd ed., B. Truelove, Ed.; Southern Weed Science Society; Auburn University, Auburn, Ala., 1977. […]

redroot pigweed (AMARE) = test: post-emergence test, weed control; assay type: in vivo; details: post-emergent, 28 DAT, COC 1%, rate g ai/ha by row: r5 94, r6 125, r7 250, r8 1.25, r9 2.5, r10 5, r11 94+1.25, r13 125+1.25, r15 94+2.5, r17 125+2.5, r19 94+5, r21 125+5
Description: as §1, §5, §6

Palmer amaranth (AMAPA) [2] = test: post-emergence test, weed control; assay type: in vivo, Amaranthus palmeri; details: post-emergent, 28 DAT, COC 1%, rate g ai/ha by row: r5 94, r6 125, r7 250, r8 1.25, r9 2.5, r10 5, r11 94+1.25, r13 125+1.25, r15 94+2.5, r17 125+2.5, r19 94+5, r21 125+5
Description: as §1, §5, §6

Silky windgrass (APSEV) = test: post-emergence test, weed control; assay type: in vivo; details: post-emergent, 28 DAT, height 1-1.5 cm, rate g ai/ha by row: r25 94, r26 125, r27 188, r28 125, r29 250, r30 94+125, r31 125+125, r32 188+125, r33 94+250, r34 125+250, r35 188+250
[3] = tested on: Chinese sprangletop (LEFCH); test: post-emergence test, weed control; assay type: in vivo; details: post-emergent, 28 DAT, height ≤0.5 cm, rate g ai/ha by row: r7 94, r8 125, r9 188, r10 125, r11 250, r12 94+125, r13 125+125, r14 188+125, r15 94+250, r16 125+250, r17 188+250
[4] = BFL at 188 g/ha, DCI at 125 g/ha
[5] = DCI at 250 g/ha, BFL at 125 g/ha

## CCC(Oc1ccc(F)c(C(F)(F)F)c1)C(=O)NCc1ccccc1 (racemic) [BFL, 2-[4-fluoro-3-(trifluoromethyl)phenoxy]-N-(phenylmethyl)butanamide]
Common chickweed (STEME)
  control of common chickweed: 6%
Jimsonweed (DATST); BFL at 62.5 g, PTX at 90 g
  control of jimsonweed: 4%
Jimsonweed (DATST); BFL at 187.5 g, PYX at 90 g
  control of jimsonweed: 30%
Wild oat (AVEFA); 94 g ai/ha
  percentage of weed control, Wild Oat AVEFA: 10%
Wild oat (AVEFA); 125 g ai/ha
  percentage of weed control, Wild Oat AVEFA: 9%
Palmer amaranth (AMAPA) [1]
  control of Palmer amaranth (AMAPA): 69%
Barnyardgrass (ECHCG); COC 1%, rate g ai/ha by row: r5 94, r6 125, r7 250, r8 1.25, r9 2.5, r10 5, r11 94+1.25, r13 125+1.25, r15 94+2.5, r17 125+2.5, r19 94+5, r21 125+5
  percentage of weed control, Barnyardgrass ECHCG: 5%
Barnyardgrass (ECHCG)
  control of barnyardgrass (ECHCG): 6%
Italian ryegrass (LOLMU)
  percentage of weed control, LOLMU: 0%
Italian ryegrass (LOLMU); [4]
  control of Italian rygrass (LOLMU): 0%
Italian ryegrass (LOLMU); [5]
  control of Italian rygrass (LOLMU): 0%
Canola (CN)
  crop injury on canola: significant crop injury
Redroot pigweed (AMARE); BFL at 94 g ai/ha
  percentage of weed control, Redroot pigweed AMARE: 61%
Redroot pigweed (AMARE); BFL at 125 g ai/ha
  percentage of weed control, Redroot pigweed AMARE: 60%
Redroot pigweed (AMARE); BFL at 250 g ai/ha
  percentage of weed control, Redroot pigweed AMARE: 86%
Palmer amaranth (AMAPA) [2]; BFL at 94 g ai/ha
  percentage of weed control, Palmer amaranth AMAPA: 46%
Palmer amaranth (AMAPA) [2]; BFL at 125 g ai/ha
  percentage of weed control, Palmer amaranth AMAPA: 48%
Palmer amaranth (AMAPA) [2]; BFL at 250 g ai/ha
  percentage of weed control, Palmer amaranth AMAPA: 53%
Silky windgrass (APSEV); 94 g ai/ha
  percentage of weed control, APSEV: 0%
Silky windgrass (APSEV); 188 g ai/ha
  percentage of weed control, APSEV: 5%

## CC1(C)CON(Cc2ccc(Cl)cc2Cl)C1=O [DCI, 2-(2,4-dichlorophenyl)methyl-4,4-dimethyl-3-isoxazolidinone]
Palmer amaranth (AMAPA) [1]; 125 g ai/ha
  percentage of weed control, AMAPA: 94%
Palmer amaranth (AMAPA) [1]; 250 g ai/ha
  percentage of weed control, AMAPA: 99%
Palmer amaranth (AMAPA) [1]
  control of Palmer amaranth (AMAPA): 30%
Barnyardgrass (ECHCG); 125 g ai/ha
  percentage of weed control, ECHCG: 74%
Barnyardgrass (ECHCG); 250 g ai/ha
  percentage of weed control, ECHCG: 69%
Barnyardgrass (ECHCG)
  control of barnyardgrass (ECHCG): 74%
Italian ryegrass (LOLMU); 125 g ai/ha
  percentage of weed control, LOLMU: 0%
Italian ryegrass (LOLMU); 250 g ai/ha
  percentage of weed control, LOLMU: 9%
Italian ryegrass (LOLMU); [4]
  control of Italian rygrass (LOLMU): 0%
Italian ryegrass (LOLMU); [5]
  control of Italian rygrass (LOLMU): 9%
[3]; 125 g ai/ha
  percentage of weed control, LEFCH: 89%
[3]; 250 g ai/ha
  percentage of weed control, LEFCH: 79%
Silky windgrass (APSEV); 125 g ai/ha
  percentage of weed control, APSEV: 5%
Silky windgrass (APSEV); 250 g ai/ha
  percentage of weed control, APSEV: 0%
